Laboratory results taken from PubChem BioAssay (NCI).
≈ marks a conversion by molar mass, not a printed value.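 1) Cells in 96-well plates. 2) Compound, 48 h, 5 concentrations. 3) Linear interpolation between surrounding doses. 4) Unreached endpoint = highest concentration. GI50: concentration for 50% inhibition of growth. Definition used: TGI = concentration required for complete inhibition of growth.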 Residues, ends and D or L forms follow the SMILES beside them. *: point of attachment. Boc = CC(C)(C)OC(=O)*

Assays:
Experiment in all cases: NCI-60 cell line screen, 48 h
HS 578T breast = test system: HS 578T breast
LOX IMVI melanoma = test system: LOX IMVI melanoma
NCI-H522 lung = test system: NCI-H522 lung
RPMI-8226 leukemia = test system: RPMI-8226 leukemia
U251 CNS = test system: U251 CNS
UACC-62 melanoma = test system: UACC-62 melanoma
SR leukemia = test system: SR leukemia
SN12C renal = test system: SN12C renal
CCRF-CEM leukemia = test system: CCRF-CEM leukemia
IGROV1 ovarian = test system: IGROV1 ovarian
SK-OV-3 ovarian = test system: SK-OV-3 ovarian
HCC-2998 colon = test system: HCC-2998 colon
MDA-MB-231 breast = test system: MDA-MB-231 breast
NCI-H23 lung = test system: NCI-H23 lung
SF-539 CNS = test system: SF-539 CNS
UACC-257 melanoma = test system: UACC-257 melanoma
MDA-N = test system: MDA-N
SK-MEL-28 melanoma = test system: SK-MEL-28 melanoma
KM12 colon = test system: KM12 colon
SF-295 CNS = test system: SF-295 CNS
MCF7 breast = test system: MCF7 breast
NCI-H460 lung = test system: NCI-H460 lung
SNB-75 CNS = test system: SNB-75 CNS
HL-60(TB) leukemia = test system: HL-60(TB) leukemia
SF-268 CNS = test system: SF-268 CNS
COLO 205 colon = test system: COLO 205 colon
OVCAR-3 ovarian = test system: OVCAR-3 ovarian
A549 NSCLC = test system: A549 NSCLC
M14 melanoma = test system: M14 melanoma
OVCAR-8 ovarian = test system: OVCAR-8 ovarian
K-562 leukemia = test system: K-562 leukemia
MALME-3M melanoma = test system: MALME-3M melanoma
MOLT-4 leukemia = test system: MOLT-4 leukemia
MDA-MB-435 = test system: MDA-MB-435
DU-145 prostate = test system: DU-145 prostate
HCT-116 colon = test system: HCT-116 colon
SW-620 colon = test system: SW-620 colon
HCT-15 colon = test system: HCT-15 colon
TK-10 renal = test system: TK-10 renal
EKVX NSCLC = test system: EKVX NSCLC
SK-MEL-2 melanoma = test system: SK-MEL-2 melanoma
BT-549 breast = test system: BT-549 breast
HOP-92 NSCLC = test system: HOP-92 NSCLC
HOP-62 NSCLC = test system: HOP-62 NSCLC
HT29 colon = test system: HT29 colon
RXF 393 renal = test system: RXF 393 renal
SNB-19 CNS = test system: SNB-19 CNS
OVCAR-5 ovarian = test system: OVCAR-5 ovarian
A498 renal = test system: A498 renal
PC-3 prostate = test system: PC-3 prostate
UO-31 renal = test system: UO-31 renal
ACHN renal = test system: ACHN renal
SK-MEL-5 melanoma = test system: SK-MEL-5 melanoma
CAKI-1 renal = test system: CAKI-1 renal
786-0 renal = test system: 786-0 renal
OVCAR-4 ovarian = test system: OVCAR-4 ovarian
NCI/ADR-RES ovarian = test system: NCI/ADR-RES ovarian
NCI-H226 lung = test system: NCI-H226 lung

COC(=O)CNC(=O)C(Cc1ccccc1)NC(=O)C(Cc1ccccc1)NC(=O)OC(C)(C)C (stereo not drawn) (Boc-Phe-Phe-Gly-OMe; configuration not given here)
GI50 (HS 578T breast): 32.8 µg/mL (≈ 67.8 µM)
GI50 (LOX IMVI melanoma): 20.8 µg/mL (≈ 43 µM)
TGI (LOX IMVI melanoma): 50.4 µg/mL
GI50 (NCI-H522 lung): 2.35 µg/mL (≈ 4.86 µM)
TGI (NCI-H522 lung): 12.2 µg/mL
GI50 (RPMI-8226 leukemia): 20.9 µg/mL (≈ 43.2 µM)
TGI (RPMI-8226 leukemia): 49 µg/mL
GI50 (U251 CNS): 32.4 µg/mL (≈ 67 µM)
TGI (U251 CNS): 94.7 µg/mL
GI50 (UACC-62 melanoma): 15.6 µg/mL (≈ 32.2 µM)
TGI (UACC-62 melanoma): 28.9 µg/mL
GI50 (SR leukemia): 21.7 µg/mL (≈ 44.8 µM)
TGI (SR leukemia): 46.4 µg/mL
GI50 (SN12C renal): 31.3 µg/mL (≈ 64.6 µM)
GI50 (CCRF-CEM leukemia): 21.1 µg/mL (≈ 43.6 µM)
TGI (CCRF-CEM leukemia): 48.9 µg/mL
GI50 (IGROV1 ovarian): 41.6 µg/mL (≈ 86 µM)
GI50 (SK-OV-3 ovarian): 59.6 µg/mL (≈ 123 µM)
GI50 (HCC-2998 colon): 18.9 µg/mL (≈ 39 µM)
TGI (HCC-2998 colon): 40.2 µg/mL
GI50 (MDA-MB-231 breast): 48.5 µg/mL (≈ 100 µM)
GI50 (NCI-H23 lung): 35.7 µg/mL (≈ 73.8 µM)
GI50 (SF-539 CNS): 21.4 µg/mL (≈ 44.3 µM)
TGI (SF-539 CNS): 41 µg/mL
GI50 (UACC-257 melanoma): 32.4 µg/mL (≈ 67 µM)
GI50 (MDA-N): 32.9 µg/mL (≈ 68.1 µM)
GI50 (SK-MEL-28 melanoma): 18.7 µg/mL (≈ 38.7 µM)
TGI (SK-MEL-28 melanoma): 38.2 µg/mL
GI50 (KM12 colon): 28 µg/mL (≈ 57.8 µM)
TGI (KM12 colon): 74.5 µg/mL
GI50 (SF-295 CNS): 51.1 µg/mL (≈ 106 µM)
GI50 (MCF7 breast): 34.8 µg/mL (≈ 72 µM)
GI50 (NCI-H460 lung): 33.7 µg/mL (≈ 69.6 µM)
GI50 (SNB-75 CNS): 30.1 µg/mL (≈ 62.2 µM)
GI50 (HL-60(TB) leukemia): 26.5 µg/mL (≈ 54.7 µM)
TGI (HL-60(TB) leukemia): 54.8 µg/mL
GI50 (SF-268 CNS): 78.4 µg/mL (≈ 162 µM)
GI50 (COLO 205 colon): 13.5 µg/mL (≈ 27.9 µM)
TGI (COLO 205 colon): 69.5 µg/mL
GI50 (OVCAR-3 ovarian): 20 µg/mL (≈ 41.4 µM)
TGI (OVCAR-3 ovarian): 42.9 µg/mL
GI50 (A549 NSCLC): 83.3 µg/mL (≈ 172 µM)
GI50 (M14 melanoma): 27.9 µg/mL (≈ 57.6 µM)
TGI (M14 melanoma): 65.9 µg/mL
GI50 (OVCAR-8 ovarian): 25.7 µg/mL (≈ 53.1 µM)
TGI (OVCAR-8 ovarian): 74.2 µg/mL
GI50 (K-562 leukemia): 20.7 µg/mL (≈ 42.8 µM)
TGI (K-562 leukemia): 41.2 µg/mL
GI50 (MALME-3M melanoma): 22.3 µg/mL (≈ 46.1 µM)
TGI (MALME-3M melanoma): 55 µg/mL
GI50 (MOLT-4 leukemia): 18.4 µg/mL (≈ 38.1 µM)
TGI (MOLT-4 leukemia): 38.8 µg/mL
GI50 (MDA-MB-435): 42.8 µg/mL (≈ 88.5 µM)
GI50 (DU-145 prostate): 27.7 µg/mL (≈ 57.3 µM)
GI50 (HCT-116 colon): 22.5 µg/mL (≈ 46.5 µM)
TGI (HCT-116 colon): 53.3 µg/mL
GI50 (SW-620 colon): 49.1 µg/mL (≈ 102 µM)
GI50 (HCT-15 colon): 69.8 µg/mL (≈ 144 µM)
GI50 (TK-10 renal): 37.6 µg/mL (≈ 77.8 µM)
GI50 (EKVX NSCLC): 37.1 µg/mL (≈ 76.6 µM)
GI50 (SK-MEL-2 melanoma): 41.2 µg/mL (≈ 85.2 µM)
GI50 (BT-549 breast): 27.8 µg/mL (≈ 57.5 µM)
TGI (BT-549 breast): 69.2 µg/mL
GI50 (HOP-92 NSCLC): 24.9 µg/mL (≈ 51.5 µM)
TGI (HOP-92 NSCLC): 43.7 µg/mL

COC(=O)[C@H](NC(=O)OC(C)(C)C)[C@H]1COC(C)(C)O1
TGI (LOX IMVI melanoma): > 100 µM
TGI (NCI-H522 lung): > 100 µM
TGI (RPMI-8226 leukemia): > 100 µM
TGI (U251 CNS): > 100 µM
TGI (UACC-62 melanoma): > 100 µM
TGI (HOP-62 NSCLC): > 100 µM
TGI (SR leukemia): > 100 µM
TGI (HT29 colon): > 100 µM
TGI (RXF 393 renal): > 100 µM
TGI (SN12C renal): > 100 µM
TGI (CCRF-CEM leukemia): > 100 µM
TGI (IGROV1 ovarian): > 100 µM
TGI (SK-OV-3 ovarian): > 100 µM
TGI (SNB-19 CNS): > 100 µM
TGI (HCC-2998 colon): > 100 µM
TGI (MDA-MB-231 breast): > 100 µM
TGI (NCI-H23 lung): > 100 µM
TGI (SF-539 CNS): > 100 µM
TGI (OVCAR-5 ovarian): > 100 µM
TGI (UACC-257 melanoma): > 100 µM
TGI (MDA-N): > 100 µM
TGI (SK-MEL-28 melanoma): > 100 µM
TGI (A498 renal): > 100 µM
TGI (KM12 colon): > 100 µM
TGI (SF-295 CNS): > 100 µM
TGI (MCF7 breast): > 100 µM
TGI (PC-3 prostate): > 100 µM
TGI (HL-60(TB) leukemia): > 100 µM
TGI (UO-31 renal): > 100 µM
TGI (SF-268 CNS): > 100 µM
TGI (COLO 205 colon): > 100 µM
TGI (OVCAR-3 ovarian): > 100 µM
TGI (A549 NSCLC): > 100 µM
TGI (ACHN renal): > 100 µM
TGI (M14 melanoma): > 100 µM
TGI (SK-MEL-5 melanoma): > 100 µM
TGI (OVCAR-8 ovarian): > 100 µM
TGI (K-562 leukemia): > 100 µM
TGI (MALME-3M melanoma): > 100 µM
TGI (MOLT-4 leukemia): > 100 µM
TGI (MDA-MB-435): > 100 µM
TGI (DU-145 prostate): > 100 µM
TGI (HCT-116 colon): > 100 µM
TGI (SW-620 colon): > 100 µM
TGI (CAKI-1 renal): > 100 µM
TGI (HCT-15 colon): > 100 µM
TGI (786-0 renal): > 100 µM
TGI (TK-10 renal): > 100 µM
TGI (EKVX NSCLC): > 100 µM
TGI (SK-MEL-2 melanoma): > 100 µM
TGI (OVCAR-4 ovarian): > 100 µM
TGI (BT-549 breast): > 100 µM
TGI (NCI/ADR-RES ovarian): > 100 µM

CC(C)(C)OC(=O)C1C(=O)NC(=O)CC1CC(OCc1ccccc1)C(COCc1ccccc1)OCc1ccccc1 (stereo not drawn)
TGI (HS 578T breast): 66.6 µM
TGI (LOX IMVI melanoma): 25.5 µM
TGI (RPMI-8226 leukemia): 15.8 µM
TGI (U251 CNS): 24.8 µM
TGI (SR leukemia): 25 µM
TGI (HT29 colon): 14.3 µM
TGI (RXF 393 renal): 8.95 µM
TGI (SN12C renal): > 100 µM
TGI (CCRF-CEM leukemia): > 100 µM
TGI (IGROV1 ovarian): > 100 µM
TGI (SNB-19 CNS): > 100 µM
TGI (HCC-2998 colon): 50.4 µM
TGI (NCI-H23 lung): 45.7 µM
TGI (SF-539 CNS): 39.8 µM
TGI (UACC-257 melanoma): 53.4 µM
TGI (MDA-N): 79.1 µM
TGI (SK-MEL-28 melanoma): > 100 µM
TGI (A498 renal): > 100 µM
TGI (SF-295 CNS): > 100 µM
TGI (NCI-H460 lung): > 100 µM
TGI (PC-3 prostate): 37.7 µM
TGI (HL-60(TB) leukemia): 4.34 µM
TGI (UO-31 renal): 6.02 µM
TGI (SF-268 CNS): > 100 µM
TGI (A549 NSCLC): > 100 µM
TGI (ACHN renal): 70.4 µM
TGI (M14 melanoma): > 100 µM
TGI (SK-MEL-5 melanoma): 27.5 µM
TGI (OVCAR-8 ovarian): > 100 µM
TGI (K-562 leukemia): > 100 µM
TGI (MALME-3M melanoma): 11.5 µM
TGI (MOLT-4 leukemia): 13.1 µM
TGI (MDA-MB-435): 20.7 µM
TGI (NCI-H226 lung): 93.3 µM
TGI (DU-145 prostate): 80.6 µM
TGI (HCT-116 colon): > 100 µM
TGI (SW-620 colon): > 100 µM
TGI (HCT-15 colon): 39.1 µM
TGI (786-0 renal): > 100 µM
TGI (TK-10 renal): > 100 µM
TGI (EKVX NSCLC): > 100 µM
TGI (OVCAR-4 ovarian): > 100 µM
TGI (BT-549 breast): 32.8 µM
TGI (HOP-92 NSCLC): 46.2 µM
TGI (NCI/ADR-RES ovarian): 82.8 µM
